Calls of active or inactive are those of the source. The rule behind the calls is not given here.
Key:
PANC-1 [1] = experiment: Cytotoxicity in pancreatic PANC1 cancer cells at 100 ug/ml in nutrient-deprived condition; type: functional, cell-based; conditions: Homo sapiens
PANC-1 [2] = experiment: Cytotoxicity in pancreatic PANC1 cancer cells at 100 ug/ml in nutrient-rich condition; type: functional, cell-based; conditions: Homo sapiens
PANC-1 [3] = experiment: Cytotoxicity in pancreatic PANC1 cancer cells at 0.01 ug/ml within 24 hours of nutrient deprivation; type: functional, Homo sapiens
PANC-1 [4] = experiment: Cytotoxicity in pancreatic PANC1 cancer cells at 10 ug/ml within 6 hours of nutrient deprivation; type: functional, Homo sapiens

Row | SMILES | Activity (PANC-1 [1]) | Activity (PANC-1 [2]) | Activity (PANC-1 [3]) | Activity (PANC-1 [4])
1 | CC(C)(O)[C@@H]1Cc2c(ccc3ccc(=O)oc23)O1 | inactive | inactive | – | –
2 | CC(C)(OC(=O)/C=C/c1ccc(O)cc1)[C@@H]1Cc2c(ccc3ccc(=O)oc23)O1 [ANGELMARIN] | – | – | 100% | 100%
